Measurements reported in patent publication US7880007B2, “Bicyclic substituted phenyl piperidine modulators of muscarinic receptors” (Vertex Pharmaceuticals Incorporated, priority 2004, dated 2011).

Assays:
Type in all cases: cell-based
M1 muscarinic receptor = target: T1, M1 muscarinic receptor (Homo sapiens, UniProt P11229); assay: Functional mobilization of intracellular calcium (FLIPR), M1-CHO cells; conditions: for Emax: 100% efficacy is the maximum response obtained with the Carbachol control; for M1 Activity: M1-CHO cells, calcium mobilization (FLIPR)
T1 construct: expressed in transfected cells; host or cells: CHO (M1-CHO)
T1 sequence (P11229 1-460): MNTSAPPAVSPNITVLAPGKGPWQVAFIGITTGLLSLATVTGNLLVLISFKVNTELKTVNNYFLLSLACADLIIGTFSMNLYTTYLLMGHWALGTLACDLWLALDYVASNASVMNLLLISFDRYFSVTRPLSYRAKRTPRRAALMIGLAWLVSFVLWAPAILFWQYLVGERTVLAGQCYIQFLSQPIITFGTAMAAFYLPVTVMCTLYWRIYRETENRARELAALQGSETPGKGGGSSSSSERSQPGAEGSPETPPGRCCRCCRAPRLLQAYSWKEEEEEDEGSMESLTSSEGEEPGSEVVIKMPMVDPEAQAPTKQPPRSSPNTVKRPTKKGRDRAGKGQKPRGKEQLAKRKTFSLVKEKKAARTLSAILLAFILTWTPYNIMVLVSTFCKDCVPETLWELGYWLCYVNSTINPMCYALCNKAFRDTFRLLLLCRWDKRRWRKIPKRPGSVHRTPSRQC
Method in brief: (§1)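 Calcium mobilisation read by FLIPR over 60 s (ex 488/em 540 nm) in recombinant muscarinic CHO lines loaded with calcium dye plus 1 mM probenecid. Compounds tested as agonists alone, or as inhibitors against EC80 carbachol after 15 min pre-incubation or co-addition; 0.5% DMSO; efficacy scaled to carbachol maximal response.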

M2 muscarinic receptor = target: T2, M2 muscarinic receptor (Homo sapiens, UniProt P08172); assay: Functional mobilization of intracellular calcium (FLIPR), M2-CHO cells; conditions: for Emax: 100% efficacy is the maximum response obtained with the Carbachol control; for M2 Activity: M2-CHO cells, calcium mobilization (FLIPR)
T2 construct: expressed in transfected cells; host or cells: CHO (M2-CHO)
T2 sequence (P08172 1-466): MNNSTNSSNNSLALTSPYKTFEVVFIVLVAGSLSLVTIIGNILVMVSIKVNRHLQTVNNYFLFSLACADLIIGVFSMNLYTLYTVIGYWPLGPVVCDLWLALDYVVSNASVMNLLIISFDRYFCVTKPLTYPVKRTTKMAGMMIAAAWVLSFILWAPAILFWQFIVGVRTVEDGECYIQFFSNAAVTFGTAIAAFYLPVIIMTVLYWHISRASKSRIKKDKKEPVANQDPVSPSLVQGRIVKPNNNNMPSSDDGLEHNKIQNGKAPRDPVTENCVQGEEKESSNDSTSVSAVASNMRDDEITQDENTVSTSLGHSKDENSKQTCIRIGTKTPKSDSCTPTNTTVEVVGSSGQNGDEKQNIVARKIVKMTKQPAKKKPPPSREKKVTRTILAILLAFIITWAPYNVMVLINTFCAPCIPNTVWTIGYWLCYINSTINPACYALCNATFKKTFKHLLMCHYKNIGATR
Method in brief: as §1

M3 muscarinic receptor = target: T3, M3 muscarinic receptor (Homo sapiens, UniProt P20309); assay: Functional mobilization of intracellular calcium (FLIPR), M3-CHO cells; conditions: for Emax: 100% efficacy is the maximum response obtained with the Carbachol control; for M3 Activity: M3-CHO cells, calcium mobilization (FLIPR)
T3 construct: expressed in transfected cells; host or cells: CHO (M3-CHO)
T3 sequence (P20309 whole entry): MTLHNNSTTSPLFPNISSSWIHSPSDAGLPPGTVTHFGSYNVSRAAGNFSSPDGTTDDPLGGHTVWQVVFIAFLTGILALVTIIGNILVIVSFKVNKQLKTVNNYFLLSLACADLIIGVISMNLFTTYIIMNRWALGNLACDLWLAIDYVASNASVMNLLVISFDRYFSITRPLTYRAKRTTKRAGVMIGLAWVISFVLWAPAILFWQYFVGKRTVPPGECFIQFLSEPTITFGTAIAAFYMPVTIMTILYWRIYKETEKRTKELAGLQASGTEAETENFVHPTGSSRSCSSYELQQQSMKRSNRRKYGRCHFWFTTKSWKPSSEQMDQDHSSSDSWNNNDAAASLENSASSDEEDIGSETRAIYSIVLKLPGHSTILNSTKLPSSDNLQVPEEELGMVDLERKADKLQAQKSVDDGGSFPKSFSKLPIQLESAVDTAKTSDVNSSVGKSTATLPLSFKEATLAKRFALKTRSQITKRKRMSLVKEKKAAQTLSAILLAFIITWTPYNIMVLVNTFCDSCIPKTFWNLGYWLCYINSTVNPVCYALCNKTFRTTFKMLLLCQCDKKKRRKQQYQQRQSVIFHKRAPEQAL
Method in brief: as §1

M4 muscarinic receptor = target: T4, M4 muscarinic receptor (Homo sapiens, UniProt P08173); assay: Functional mobilization of intracellular calcium (FLIPR), M4-CHO cells; conditions: for Emax: 100% efficacy is the maximum response obtained with the Carbachol control; for M4 Activity: M4-CHO cells, calcium mobilization (FLIPR)
T4 construct: expressed in transfected cells; host or cells: CHO (M4-CHO)
T4 sequence (P08173 1-479): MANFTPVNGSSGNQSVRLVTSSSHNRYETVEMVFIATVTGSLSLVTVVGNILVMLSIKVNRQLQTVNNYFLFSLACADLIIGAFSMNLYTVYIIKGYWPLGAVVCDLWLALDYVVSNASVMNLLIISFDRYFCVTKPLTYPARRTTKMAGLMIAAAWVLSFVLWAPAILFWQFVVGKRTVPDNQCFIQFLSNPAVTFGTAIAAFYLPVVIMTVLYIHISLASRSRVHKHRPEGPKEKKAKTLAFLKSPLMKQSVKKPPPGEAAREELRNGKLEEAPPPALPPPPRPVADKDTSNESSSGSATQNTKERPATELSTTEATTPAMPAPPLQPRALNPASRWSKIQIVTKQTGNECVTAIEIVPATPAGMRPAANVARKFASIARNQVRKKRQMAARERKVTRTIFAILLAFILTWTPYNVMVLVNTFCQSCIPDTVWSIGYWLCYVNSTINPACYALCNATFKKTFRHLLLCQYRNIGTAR
Method in brief: as §1

| Structure (SMILES) | Emax (M1 muscarinic receptor) [%] | M1 Activity (M1 muscarinic receptor) | Emax (M2 muscarinic receptor) [%] | M2 Activity (M2 muscarinic receptor) | Emax (M3 muscarinic receptor) [%] | M3 Activity (M3 muscarinic receptor) | Emax (M4 muscarinic receptor) [%] | M4 Activity (M4 muscarinic receptor) |
| --- | --- | --- | --- | --- | --- | --- | --- | --- |
| COc1ccccc1C1(C#N)CCN(CC2CCOCC2)CC1 [Compound 373] | < 25 | + (activity was measured to be greater than 5.0 μM) | < 25 | + (activity was measured to be greater than 5.0 μM) | < 25 | + (activity was measured to be greater than 5.0 μM) | 25 to 100 | + (activity was measured to be greater than 5.0 μM) |
| COc1ccccc1C1CCN(C2CCCC(O)CCC2)CC1 (stereo not drawn) [Compound 374] | < 25 | + (activity was measured to be greater than 5.0 μM) | < 25 | + (activity was measured to be greater than 5.0 μM) | < 25 | + (activity was measured to be greater than 5.0 μM) | 25 to 100 | ++ (activity was measured to be from 1.0 μM to 5.0 μM) |
| OC1(c2cc(Cl)cc(Cl)c2)CCN(C2C[C@H]3CC[C@H]2C3)CC1 (stereo partly drawn) [Compound 375] | < 25 | + (activity was measured to be greater than 5.0 μM) | < 25 | + (activity was measured to be greater than 5.0 μM) | < 25 | + (activity was measured to be greater than 5.0 μM) | 25 to 100 | + (activity was measured to be greater than 5.0 μM) |
| COc1ccc(Cl)cc1C1CCN(C2CCSCC2)CC1 [Compound 376] | 25 to 100 | ++ (activity was measured to be from 1.0 μM to 5.0 μM) | < 25 | + (activity was measured to be greater than 5.0 μM) | < 25 | + (activity was measured to be greater than 5.0 μM) | 25 to 100 | +++ (activity was measured to be less than 1.0 μM) |
| COc1ccc(C#CC2(O)CCCCC2)cc1C1CCN([C@@H]2C[C@H]3CC[C@H]2C3)CC1 [Compound 377] | < 25 | + (activity was measured to be greater than 5.0 μM) | < 25 | + (activity was measured to be greater than 5.0 μM) | < 25 | + (activity was measured to be greater than 5.0 μM) | 25 to 100 | +++ (activity was measured to be less than 1.0 μM) |
| Fc1ccccc1C1CCN(C2CCOCC2)CC1 [Compound 378] | 25 to 100 | + (activity was measured to be greater than 5.0 μM) | < 25 | + (activity was measured to be greater than 5.0 μM) | < 25 | + (activity was measured to be greater than 5.0 μM) | 25 to 100 | +++ (activity was measured to be less than 1.0 μM) |
| Cc1ccc(F)cc1C1CCN([C@@H]2C[C@H]3CC[C@H]2C3)CC1 [Compound 381] | 25 to 100 | ++ (activity was measured to be from 1.0 μM to 5.0 μM) | 25 to 100 | ++ (activity was measured to be from 1.0 μM to 5.0 μM) | < 25 | + (activity was measured to be greater than 5.0 μM) | 25 to 100 | +++ (activity was measured to be less than 1.0 μM) |
| COc1ccc(-c2ccc3c(c2)OCO3)cc1C1CCN(C2CCCCC2)CC1 [Compound 382] | < 25 | + (activity was measured to be greater than 5.0 μM) | < 25 | + (activity was measured to be greater than 5.0 μM) | < 25 | + (activity was measured to be greater than 5.0 μM) | 25 to 100 | + (activity was measured to be greater than 5.0 μM) |
| COc1ccc(-c2ccc(C#N)cc2)cc1C1CCN([C@@H]2C[C@H]3CC[C@H]2C3)CC1 [Compound 383] | 25 to 100 | + (activity was measured to be greater than 5.0 μM) | < 25 | + (activity was measured to be greater than 5.0 μM) | < 25 | + (activity was measured to be greater than 5.0 μM) | 25 to 100 | ++ (activity was measured to be from 1.0 μM to 5.0 μM) |
| CCC(C)Oc1ccccc1C1CCN([C@H]2C[C@H]3CC[C@H]2C3)CC1 (stereo partly drawn) [Compound 384] | 25 to 100 | + (activity was measured to be greater than 5.0 μM) | < 25 | + (activity was measured to be greater than 5.0 μM) | < 25 | + (activity was measured to be greater than 5.0 μM) | 25 to 100 | ++ (activity was measured to be from 1.0 μM to 5.0 μM) |
| Cc1ccc(-c2ccccc2C2CCN([C@H]3C[C@H]4CC[C@H]3C4)CC2)c(C)c1 [Compound 386] | < 25 | + (activity was measured to be greater than 5.0 μM) | < 25 | + (activity was measured to be greater than 5.0 μM) | < 25 | + (activity was measured to be greater than 5.0 μM) | 25 to 100 | + (activity was measured to be greater than 5.0 μM) |
| CCOC(=O)N1C2CCC1CC(N1CCC(c3cc(-c4ccc5c(c4)OCO5)ccc3OC)CC1)C2 (stereo not drawn) [Compound 387] | 25 to 100 | + (activity was measured to be greater than 5.0 μM) | < 25 | + (activity was measured to be greater than 5.0 μM) | < 25 | + (activity was measured to be greater than 5.0 μM) | 25 to 100 | ++ (activity was measured to be from 1.0 μM to 5.0 μM) |
| CNC(=O)c1ccc(-c2ccc(OC)c(C3CCN([C@H]4C[C@H]5CC[C@H]4C5)CC3)c2)cc1 [Compound 388] | < 25 | + (activity was measured to be greater than 5.0 μM) | < 25 | + (activity was measured to be greater than 5.0 μM) | < 25 | + (activity was measured to be greater than 5.0 μM) | 25 to 100 | +++ (activity was measured to be less than 1.0 μM) |
| COc1ccc(-c2ccc(C(=O)Nc3nccs3)cc2)cc1C1CCN(C2CCOCC2)CC1 [Compound 389] | < 25 | + (activity was measured to be greater than 5.0 μM) | < 25 | + (activity was measured to be greater than 5.0 μM) | < 25 | + (activity was measured to be greater than 5.0 μM) | < 25 | + (activity was measured to be greater than 5.0 μM) |
| CCOC(=O)N1C2CCC1CC(N1CCC(OC)(c3cc(Cl)ccc3OC)CC1)C2 (stereo not drawn) [Compound 390] | 25 to 100 | +++ (activity was measured to be less than 1.0 μM) | < 25 | + (activity was measured to be greater than 5.0 μM) | < 25 | + (activity was measured to be greater than 5.0 μM) | 25 to 100 | +++ (activity was measured to be less than 1.0 μM) |
